# Values of other authors, collected in US12194073B1, “Method of arthropod egress” (priority 2023, dated 2025).
# Like-named read-outs stand apart in the source and are kept apart here.
# Columns and labels:
# [1] = test system: Demodex folliculorum; details: all three concentrations; in vitro; vs 5% permethrin
# [2] = for therapeutic effect: suspension in vegetable oils, glycerol, mineral oil and white petrolatum
# [3] = solution in SFA (F4H5)
# [4] = for drug payload: solution in squalane, with/without mineral oil
# [5] = not given; remark: listed apart in the source
# [6] = for ocular adverse effects: suspension in vegetable oils, glycerol, mineral oil and white petrolatum
# [7] = for shelf stability at ambient temperature: suspension in vegetable oils, glycerol, mineral oil and white petrolatum
# [8] = not given; remark: listed apart in the source
# [9] = self-emulsifying system; corn oil, PEG-6 esters, Tween 80 and Transcutol
# [10] = squalane, with/without mineral oil, as vehicle
# [11] = solution in DMSO and castor oil
# [12] = self-emulsifying system, corn oil, PEG-6 esters, Tween 80 and Transcutol
# [13] = suspension in sesame seed oil vs high-dose viscous aqueous formulation
# [14] = self-emulsifying system, Capmul MCM, Cremophor RH 40, Transcutol and hydroxypropylmethyl cellulose
# [15] = self-emulsifying system, S-protected thiolated Eudragit L100-55-BAK ion pair, Labrafil M 1944CS
# [16] = oleogel, soyabean oil, beeswax and gelator
compound,measurement,setting,value
O=C(O)CCCCCCCC(=O)O [azelaic acid],anti-Demodex efficacy,[1],comparable to that of 5% permethrin
CC(C)OC(=O)CCC/C=C\C[C@@H]1[C@@H](CC[C@@H](O)CCc2ccccc2)[C@H](O)C[C@@H]1O [Latanoprost],bioavailability,"solution in SFA (F4H5, F6H8)",eyedrops at relatively lower dose; improved
same,Clinical efficacy,"[2]; solution in SFA (F4H5, F6H8) at relatively lower dose vs marketed aqueous eyedrops",Clinical efficacy comparable to marketed aqueous
C=CC[C@@H]1/C=C(\C)C[C@H](C)C[C@H](OC)[C@H]2O[C@@](O)(C(=O)C(=O)N3CCCC[C@H]3C(=O)O[C@H](/C(C)=C/[C@@H]3CC[C@@H](O)[C@H](OC)C3)[C@H](C)[C@@H](O)CC1=O)[C@H](C)C[C@@H]2OC [Tacrolimus],intraocular penetration,solution in SFA (F4H5) vs aqueous suspension,greater intraocular penetration than aqueous
same,clinical signs of uveitis,[3],Significant improvement in clinical signs of uveitis;
CC[C@@H]1/C=C(\C)C[C@H](C)C[C@H](OC)[C@H]2O[C@@](O)(C(=O)C(=O)N3CCCC[C@H]3C(=O)O[C@H](/C(C)=C/[C@@H]3CC[C@H](Cl)[C@H](OC)C3)[C@H](C)[C@@H](O)CC1=O)[C@H](C)C[C@@H]2OC [Pimecrolimus],drug payload,[4],high drug payload; potential to reduce dosing
same,safety,"[5]; dog, in vivo",Better
same,clinical outcomes,"[5]; solution in corn oil vs ointments, dogs with DED",Better clinical outcomes
O=C(O)c1cn(C2CC2)c2cc(N3CCNCC3)c(F)cc2c1=O [ciprofloxacin],drug payload,[4],high drug payload; potential to reduce dosing
Cc1ccccc1N1CCN(CCc2nnc3n2CCCC3)CC1 [dapiprazole],ocular adverse effects,[6],reduced
same,shelf stability at ambient temperature,[7],adverse effects; improved shelf stability at ambient
same,therapeutic effect,[2],Improved
ivermectin,solubility among the oils tested,[8],highest solubility in tea tree oil followed by ethylbutanoate
O=C(O)c1cccc(-c2noc(-c3ccccc3F)n2)c1 [Ataluren],Sterility,[7]; [11],Sterility maintained and drug degradation
same,drug degradation,[7]; [11],inhibited; no penetration studies performed
CC(C)N1CCN(c2ccc(OCC3COC(Cn4cncn4)(c4ccc(Cl)cc4Cl)O3)cc2)CC1 (stereo not drawn) [Terconazole],drug stability,[7]; [12],Improved
same,drug release,[4]; [12],rapid
same,conjunctival irritation in vitro,[9],no
CC[C@H]1OC(=O)[C@H](C)[C@@H](O[C@H]2C[C@@](C)(OC)[C@@H](O)[C@H](C)O2)[C@H](C)[C@@H](O[C@@H]2O[C@H](C)C[C@H](N(C)C)[C@H]2O)[C@](C)(O)C[C@@H](C)CN(C)[C@H](C)[C@@H](O)[C@]1(C)O [Azithromycin],adverse events (if any) in clinical trials,"[6]; Azyter, solution in MCT",mild to moderate
same,tolerability,"[6]; Azyter, solution in MCT",well tolerated
CC[C@@H]1C(=O)OC[C@@H]1Cc1cncn1C [Pilocarpine],ocular adverse effects,[6],reduced
same,shelf stability at ambient temperature,[7],adverse effects; improved shelf stability at ambient
same,therapeutic effect,[2],Improved
CC(C)CCCC(C)CCCC(C)CCCCC(C)CCCC(C)CCCC(C)C (stereo not drawn) [Squalane],symptomatic relief in DED (vehicle),[10],Vehicle beneficial for symptomatic relief in DED;
CNC[C@H](O)c1cccc(O)c1 [Phenylephrine],onset of action,[2]; [13],Faster
same,therapeutic response,[2]; [13],higher
Clc1ccc(COC(Cn2ccnc2)c2ccc(Cl)cc2Cl)cc1 (stereo not drawn) [Econazole nitrate],penetration,[14],Enhanced
same,in vitro and in vivo safety,[6]; [14],acceptable in vitro and in vivo safety
same,in vitro release profile,[4]; [15],good in vitro release profile; no in vivo studies
same,mucoadhesion,[4]; [15],Mucoadhesive
same,sustained drug release over,[4]; [15],8 h
same,onset of action,[2]; [14],faster
C[C@]12C=CC(=O)C=C1CC[C@@H]1[C@@H]2[C@@H](O)C[C@@]2(C)[C@H]1CC[C@]2(O)C(=O)CO [Prednisolone],precorneal drainage,"self-emulsifying system, linoleic acid, Cremophor RH 40 and propylene glycol",reduced
same,drug payload,[4],high drug payload; potential to reduce dosing
C[C@]12C=CC(=O)C=C1CC[C@H]1[C@@H]3C[C@@H](O)[C@](O)(C(=O)CO)[C@@]3(C)C[C@H](O)[C@@]12F [triamcinolone],drug release,[4]; [16],Extended
same,release profile and oleogel texture,[4]; [16],customisable
CN[C@H](CC(C)C)C(=O)N[C@H]1C(=O)N[C@@H](CC(N)=O)C(=O)N[C@H]2C(=O)N[C@H]3C(=O)N[C@H](C(=O)N[C@H](C(=O)O)c4cc(O)cc(O)c4-c4cc3ccc4O)[C@H](O)c3ccc(c(Cl)c3)Oc3cc2cc(c3O[C@@H]2O[C@H](CO)[C@@H](O)[C@H](O)[C@H]2O[C@H]2C[C@](C)(N)[C@H](O)[C@H](C)O2)Oc2ccc(cc2Cl)[C@H]1O [Vancomycin],drug release,[4]; [16],Extended
same,release profile and oleogel texture,[4]; [16],customisable
C[C@]12CCC(=O)C=C1CC[C@@H]1[C@@H]2[C@@H](O)C[C@@]2(C)[C@H]1CC[C@]2(O)C(=O)CO [Hydrocortisone],drug payload,[4],high drug payload; potential to reduce dosing
